One experiment deals with ovariectomised rats. The experiment can be described thus: Prevention of ovariectomy-induced bone loss in rats (anti-osteoporosis test, pQCT trabecular bone mineral density). The format is in vivo, rat (female Wistar). The settings on record: Rattus norvegicus, 672 h; oral administration; ovariectomised rats, once or twice daily for 4 weeks; 40-60% proportional difference in trabecular bone mineral density; read-out: Osteoporosis ED50. An excerpt: Ovariectomy induces in rats bone loss, which is due to oestrogen deficiency. Administration of oestrogenic compounds prevents this effect. The test is used to evaluate a compound for anti-osteoporotic activity in ovariectomised rats. The effect on bone mass can be evaluated by peripheral Quantitave Computed Tomography (pQCT) measurement of trabecular bone mineral density.
Mature virgin female Wistar rats preferentially, 225-250 g. Strain: Hsd/Cpd:Wu, SPF-bred by Harlan, CPB, Zeist, The Netherlands.
On day 1 of the experiment the rats are weighed and distributed over the cages in order of body weight. The rat with the lowest body weight in the first cage and the heaviest rat in the last cage. Treatments are randomized over the rats per block. A block (group of 3+n treatments) consists of 1 Intact placebo rat, 1 OVX placebo rat, 1 OVX reference rat and 1 rat of each n treatments.
Sham-operation and ovariectomy are performed under ether anaesthesia. After recovery from the anaesthesia, within 24 h, vehicle, reference compound or test compound is administered once or twice daily for 4 weeks.
Trabecular bone mineral density (mg/cm^3) of the metaphyseal part of the femur was measured with a pQCT (peripheral Quantitative Computed Tomography machine; XCT 960A, Stratec, Birkenfeld, Germany) directly after autopsy on fresh tissue. Two 360° scans, which have, due to the X-ray beam, a standard thickness of 1 mm were taken. The scans have a resolution of 0.148×0.148 mm. One scan was taken at 5.5 mm from the distal end of the femur, where trabecular bone mineral density of the metaphyseal part was measured. The other scan was taken in the diaphysis at 13.5 mm from the distal end, which contains no trabecular bone. In the latter scan cortical bone mineral density and the geometrical parameters, such as cortical thickness, total bone area, outer and inner diameter, were determined. Intra- and inter-assay variation for the measurement of trabecular bone mineral density in the distal femur were about 2-3%. The XCT-960A was calibrated with a standard of hydroxyapatite embedded in acrylic plastic.
Ovariectomy causes a statistically significant decrease in trabecular bone mineral density (P≤0.05, 2 way ANOVA).
The active dose (ED50) is the dose where a mean proportional difference in trabecular bone mineral density between 40 and 60% is reached as compared to the sham and ovariectomised group.
(§1) Several of the compounds according to the Examples I-VI, as well as other compounds according to the invention synthesized in analogous manner, were subjected to the tests described in the Examples VII and VIII. The results are described in the Table, in which the type of A-ring and the substitution at carbon atoms nos. 7, 11, and 17 is indicated. In the columns captioned E and P, the relative binding affinities for the estrogen and progesterone receptors are given; the ED50 results of the AllenDoisy and the McPhail tests have been indicated in μg/kg. In the column captioned "Osteoporosis", the ED50 results of the anti-osteoporosis test are given (dose in μg/kg, day, as described above).

Experiment [1] has as its system human progesterone (P) receptor. Kind of experiment: Relative progesterone receptor binding affinity, cytoplasmic receptors of MCF-7 cells. As to conditions: relative to (16α)-16-ethyl-21-hydroxy-19-norpregn-4-ene-3,20-dione, 16 h, 4° C.
For experiment [2], the target named is T1, human estradiol (E) receptor (Homo sapiens, UniProt P03372).
T1 construct: present in human breast tumor cells (MCF-7 cells); endogenous in cells; host or cells: MCF-7 human breast tumor cells
T1 sequence (P03372 1-595): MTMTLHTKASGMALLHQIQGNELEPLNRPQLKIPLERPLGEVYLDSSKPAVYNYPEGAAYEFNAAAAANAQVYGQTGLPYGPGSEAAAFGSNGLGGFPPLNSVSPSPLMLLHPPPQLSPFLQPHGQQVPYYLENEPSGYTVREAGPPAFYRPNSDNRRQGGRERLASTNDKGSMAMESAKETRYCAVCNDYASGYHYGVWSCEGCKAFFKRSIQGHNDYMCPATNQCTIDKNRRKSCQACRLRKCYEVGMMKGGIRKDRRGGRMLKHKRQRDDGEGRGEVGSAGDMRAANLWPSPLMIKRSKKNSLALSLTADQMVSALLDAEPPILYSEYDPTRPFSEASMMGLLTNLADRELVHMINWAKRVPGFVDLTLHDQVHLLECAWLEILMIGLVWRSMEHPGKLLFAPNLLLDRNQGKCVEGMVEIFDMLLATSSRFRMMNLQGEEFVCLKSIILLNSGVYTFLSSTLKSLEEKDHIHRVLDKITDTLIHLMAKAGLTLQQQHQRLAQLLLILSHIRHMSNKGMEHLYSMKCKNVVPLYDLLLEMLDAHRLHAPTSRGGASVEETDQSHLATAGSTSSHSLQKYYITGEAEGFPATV
The experiment is classed as binding. The procedure: The relative estradiol receptor binding affinity was measured in the same manner as described above but using 17βestradiol as a reference.
as §1

A short description of experiment [3]: McPhail test for progestagenic activity in vivo. As to conditions: oral administration; progestagenic activity; read-out: McPhail ED50.
A short description of experiment [4]: Allen Doisy test for estrogenic activity in vivo. As to conditions: oral administration; estrogenic activity; read-out: AllenDoisy ED50.

Structures are written as SMILES. Bounds are passed on as bounds.

One may read the ED50 as the dose that gives a 50% effect, or the effect in half of the subjects. Consider `C[C@]12CC[C@@H]3c4ccc(O)cc4CC[C@H]3[C@@H]1C[C@H]1CCCC[C@]12O` [Code 37469], for which the ED50 in the experiment on ovariectomised rats is above 4 mg/kg; in experiment [3], above 2 mg/kg; in experiment [4], above 4 mg/kg. The “Relative binding affinity to the human progesterone (P) receptor” value (shortened to “Relative binding affinity … (P) receptor”) in experiment [1] is 23%. In addition, the “Relative binding affinity to the human estradiol (E) receptor” value (from here on “Relative binding affinity … (E) receptor”) in experiment [2] is listed as 1%.

With `CCC[C@@H]1Cc2cc(O)ccc2[C@H]2CC[C@@]3(C)[C@@H](C[C@H]4C[C@@H](C)C[C@]43O)[C@H]12` [Code 38514], the ED50 with ovariectomised rats is below 0.032 mg/kg; in experiment [3] it was above 2 mg/kg; in experiment [4], 0.024 mg/kg. In experiment [1], the “Relative binding affinity … (P) receptor” value is 4%. Besides, the “Relative binding affinity … (E) receptor” value in experiment [2] worked out at 11%.

For the compound `CCC[C@@H]1Cc2cc(O)ccc2[C@H]2CC[C@@]3(C)[C@@H](C[C@H]4C[C@H](C)C[C@]43O)[C@H]12` [Code 38481, (4'S,7-alpha,16-beta, 17-beta)-3',4',5',16-tetrahydro-4'-methyl-7-propyl-17H-cyclopenta[16,17]estra-1,3,5(10)-trien-3,17-diol], the ED50 was 0.125 mg/kg in the experiment on ovariectomised rats, above 4 mg/kg in experiment [3] and 0.064 mg/kg in experiment [4]. Also, the “Relative binding affinity … (P) receptor” value in experiment [1] is on record as 6%. For the same compound, in experiment [2], the “Relative binding affinity … (E) receptor” value worked out at 23%.

The values are drawn from patent US6313180A, “Steroid compounds having contraceptive and anti-osteoporosis activity” (priority 1997, dated 2001).
